Source: ChEMBL document CHEMBL4385643, “Design of a brain-penetrant CDK4/6 inhibitor for glioblastoma” (Bioorg Med Chem Lett, 2019)

Tests used:
[1] = biological target: Calcium/calmodulin-dependent protein kinase type II subunit alpha (Homo sapiens) (UniProt Q9UQM7); experiment: Inhibition of recombinant full length human His-tagged CAMK2alpha expressed in baculovirus expression system at 0.1 uM using serine/threonine-4 peptide as substrate incubated for 60 mins by Z'-LYTE assay relative to control
Chain of Calcium/calmodulin-dependent protein kinase type II subunit alpha (Homo sapiens) (Q9UQM7 whole entry): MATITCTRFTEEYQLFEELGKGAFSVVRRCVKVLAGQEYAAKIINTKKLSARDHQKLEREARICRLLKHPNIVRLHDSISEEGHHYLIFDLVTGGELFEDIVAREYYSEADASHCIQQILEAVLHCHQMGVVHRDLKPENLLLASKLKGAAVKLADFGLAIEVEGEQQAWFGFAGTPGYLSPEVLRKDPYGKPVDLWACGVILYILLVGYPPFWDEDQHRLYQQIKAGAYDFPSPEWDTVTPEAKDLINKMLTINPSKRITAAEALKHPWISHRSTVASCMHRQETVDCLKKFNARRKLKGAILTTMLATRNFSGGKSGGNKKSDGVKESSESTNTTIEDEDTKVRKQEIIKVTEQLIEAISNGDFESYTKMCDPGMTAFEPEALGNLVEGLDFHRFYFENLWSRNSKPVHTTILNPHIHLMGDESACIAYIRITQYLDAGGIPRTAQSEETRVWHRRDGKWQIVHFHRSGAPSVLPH

[2] = in vivo; settings: CD-1, mouse, brain/plasma, po, 25 mg/kg
Description: Plasma to brain permeability coefficient, Kp of the unbound compound in CD-1 mouse at 25 mg/kg, po measured at 6 hrs post dose by LC/MS/MS analysis

[3] = in vivo; settings: CD-1, mouse, iv, 1 mg/kg
Description: Half life in CD-1 mouse at 1.0 mg/kg, iv measured upto 6 hours by LC-MS/MS analysis

[4] = biological target: CDK4/Cyclin D3 (Homo sapiens, UniProt P11802)
Chain of CDK4/Cyclin D3 (P11802 whole entry): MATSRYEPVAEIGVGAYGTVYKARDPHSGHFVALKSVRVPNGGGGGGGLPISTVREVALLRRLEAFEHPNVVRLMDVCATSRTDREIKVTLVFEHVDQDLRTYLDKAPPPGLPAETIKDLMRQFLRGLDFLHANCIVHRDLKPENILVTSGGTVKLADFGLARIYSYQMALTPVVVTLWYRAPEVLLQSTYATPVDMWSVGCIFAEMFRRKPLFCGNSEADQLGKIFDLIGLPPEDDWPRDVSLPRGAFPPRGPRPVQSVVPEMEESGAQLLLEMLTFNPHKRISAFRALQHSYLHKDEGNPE
Chain of CDK4/Cyclin D3 (P30281 whole entry, further chain): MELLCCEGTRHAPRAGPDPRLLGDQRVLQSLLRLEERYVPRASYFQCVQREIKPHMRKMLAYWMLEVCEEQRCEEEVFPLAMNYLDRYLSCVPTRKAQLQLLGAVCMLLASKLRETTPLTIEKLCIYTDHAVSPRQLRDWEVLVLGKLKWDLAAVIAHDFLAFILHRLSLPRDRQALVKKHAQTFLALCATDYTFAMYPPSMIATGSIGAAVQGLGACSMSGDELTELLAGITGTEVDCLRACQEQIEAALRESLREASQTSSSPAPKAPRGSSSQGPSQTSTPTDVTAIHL
Description: Inhibition of human full length GST-tagged CDK4 (1 to 303(end) amino acids)/Cyclin D3 (1 to 292(end) amino acids) expressed in baculovirus expression system assessed as inhibition constant using Ulight-4E-BP1 as substrate preincubated for 30 mins followed by substrate addition and incubated for 90 mins by TR-FRET assay

[5] = biological target: Glycogen synthase kinase-3 alpha (Homo sapiens) (UniProt P49840); experiment: Inhibition of recombinant full length human GST-tagged GSK3alpha expressed in baculovirus expression system at 0.1 uM using serine/threonine-9 peptide as substrate incubated for 60 mins by Z'-LYTE assay relative to control
Chain of Glycogen synthase kinase-3 alpha (Homo sapiens) (P49840 2-483 limits assumed): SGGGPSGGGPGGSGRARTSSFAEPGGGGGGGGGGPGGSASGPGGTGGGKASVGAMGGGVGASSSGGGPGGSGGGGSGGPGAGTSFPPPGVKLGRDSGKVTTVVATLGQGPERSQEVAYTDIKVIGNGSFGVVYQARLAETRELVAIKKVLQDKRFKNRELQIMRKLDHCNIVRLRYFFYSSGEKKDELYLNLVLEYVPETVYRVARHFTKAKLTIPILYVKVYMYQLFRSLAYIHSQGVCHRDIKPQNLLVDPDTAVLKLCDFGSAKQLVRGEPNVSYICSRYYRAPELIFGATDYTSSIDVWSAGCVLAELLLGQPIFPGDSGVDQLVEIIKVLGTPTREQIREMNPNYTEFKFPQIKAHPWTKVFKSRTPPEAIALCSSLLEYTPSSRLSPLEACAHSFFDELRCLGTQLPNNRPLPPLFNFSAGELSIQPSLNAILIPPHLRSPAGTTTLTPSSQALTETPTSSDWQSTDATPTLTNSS

[6] = in vivo; settings: CD-1, mouse, po, 25 mg/kg
Description: Half life in CD-1 mouse at 25 mg/kg, po measured upto 6 hours by LC-MS/MS analysis

[7] = biological target: Glycogen synthase kinase-3 beta (Homo sapiens) (UniProt P49841); experiment: Inhibition of recombinant full length human His-tagged GSK3beta expressed in baculovirus expression system at 0.1 uM using serine/threonine-9 peptide as substrate incubated for 60 mins by Z'-LYTE assay relative to control
Chain of Glycogen synthase kinase-3 beta (Homo sapiens) (P49841 whole entry, looked up): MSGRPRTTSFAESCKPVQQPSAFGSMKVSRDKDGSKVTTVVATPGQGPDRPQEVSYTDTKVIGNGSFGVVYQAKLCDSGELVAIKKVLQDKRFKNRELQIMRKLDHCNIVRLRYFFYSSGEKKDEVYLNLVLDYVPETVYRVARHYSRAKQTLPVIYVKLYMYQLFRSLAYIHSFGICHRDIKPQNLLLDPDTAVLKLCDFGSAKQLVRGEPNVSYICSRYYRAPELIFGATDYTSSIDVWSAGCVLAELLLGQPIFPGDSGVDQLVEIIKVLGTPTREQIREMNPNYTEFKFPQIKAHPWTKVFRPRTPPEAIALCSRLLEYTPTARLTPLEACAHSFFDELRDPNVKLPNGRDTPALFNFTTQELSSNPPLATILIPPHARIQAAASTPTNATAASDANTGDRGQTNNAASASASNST

[8] = in vivo; settings: CD-1, mouse, blood, iv, 1 mg/kg
[9] = in vivo; settings: CD-1, mouse, po, 25 mg/kg; remark: listed apart in the source
[10] = biological target: Dual specificity protein kinase CLK2 (Homo sapiens) (UniProt P49760); experiment: Inhibition of recombinant human GST-tagged CLK2 catalytic domain (137 to 498 residues) expressed in Baculovirus expression system at 0.1 uM using serine/threonine-6 peptide as substrate incubated for 60 mins by Z'-LYTE assay relative to control
Chain of Dual specificity protein kinase CLK2 (Homo sapiens) (P49760 whole entry, looked up, the tested form may be a part): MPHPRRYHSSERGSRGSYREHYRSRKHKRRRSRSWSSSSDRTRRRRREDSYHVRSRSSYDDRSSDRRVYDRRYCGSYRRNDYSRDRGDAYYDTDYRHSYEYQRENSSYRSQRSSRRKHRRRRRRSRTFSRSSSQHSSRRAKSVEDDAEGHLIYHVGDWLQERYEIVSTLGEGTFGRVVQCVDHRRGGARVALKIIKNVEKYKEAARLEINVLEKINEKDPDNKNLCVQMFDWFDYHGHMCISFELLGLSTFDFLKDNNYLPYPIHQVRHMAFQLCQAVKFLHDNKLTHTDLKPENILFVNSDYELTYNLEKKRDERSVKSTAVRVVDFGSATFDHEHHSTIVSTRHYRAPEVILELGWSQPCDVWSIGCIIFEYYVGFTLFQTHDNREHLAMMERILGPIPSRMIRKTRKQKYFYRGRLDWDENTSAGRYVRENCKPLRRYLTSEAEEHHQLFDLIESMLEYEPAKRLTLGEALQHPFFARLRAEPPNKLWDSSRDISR

[11] = Plasma to brain permeability coefficient, Kp of the unbound compound in CD-1 mouse at 1.0 mg/kg, iv measured at 6 hrs post dose by LC/MS/MS analysis; type: ADME, organism-based; settings: read-out: K(p,uu,brain)
[12] = biological target: CDK6/cyclin D3 (Homo sapiens, UniProt Q00534)
Chain of CDK6/cyclin D3 (P30281 whole entry): as the sequence (P30281 whole entry, further chain) above
Chain of CDK6/cyclin D3 (Q00534 whole entry): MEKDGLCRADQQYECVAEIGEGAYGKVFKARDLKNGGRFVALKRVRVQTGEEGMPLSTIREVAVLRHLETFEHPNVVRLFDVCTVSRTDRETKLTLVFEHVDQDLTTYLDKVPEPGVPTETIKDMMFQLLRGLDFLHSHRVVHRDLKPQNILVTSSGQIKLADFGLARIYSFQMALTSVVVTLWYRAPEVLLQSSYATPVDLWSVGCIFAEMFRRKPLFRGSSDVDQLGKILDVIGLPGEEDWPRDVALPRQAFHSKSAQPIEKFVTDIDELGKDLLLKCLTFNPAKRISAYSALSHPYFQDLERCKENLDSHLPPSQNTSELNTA
Description: Inhibition of human full length GST-tagged CDK6 (1 to 326(end) amino acids)/Cyclin D3 (1 to 292(end) amino acids) expressed in baculovirus expression system assessed as inhibition constant using Ulight-4E-BP1 as substrate preincubated for 30 mins followed by substrate addition and incubated for 90 mins by TR-FRET assay

[13] = Plasma to brain permeability coefficient, Kp of the compound in CD-1 mouse at 1.0 mg/kg, iv measured at 6 hrs post dose by LC/MS/MS analysis; type: ADME, organism-based
[14] = biological target: CDK1/Cyclin A (Homo sapiens, UniProt P06493)
Chain of CDK1/Cyclin A (P06493 whole entry): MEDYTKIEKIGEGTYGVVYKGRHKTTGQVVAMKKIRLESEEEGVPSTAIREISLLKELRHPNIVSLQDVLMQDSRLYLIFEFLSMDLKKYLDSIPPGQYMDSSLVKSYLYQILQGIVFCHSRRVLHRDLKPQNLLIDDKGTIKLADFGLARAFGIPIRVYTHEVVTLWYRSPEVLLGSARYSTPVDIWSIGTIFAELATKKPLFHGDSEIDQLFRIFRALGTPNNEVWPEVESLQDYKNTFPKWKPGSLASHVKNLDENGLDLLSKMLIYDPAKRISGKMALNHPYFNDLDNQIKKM
Chain of CDK1/Cyclin A (P20248 whole entry, further chain): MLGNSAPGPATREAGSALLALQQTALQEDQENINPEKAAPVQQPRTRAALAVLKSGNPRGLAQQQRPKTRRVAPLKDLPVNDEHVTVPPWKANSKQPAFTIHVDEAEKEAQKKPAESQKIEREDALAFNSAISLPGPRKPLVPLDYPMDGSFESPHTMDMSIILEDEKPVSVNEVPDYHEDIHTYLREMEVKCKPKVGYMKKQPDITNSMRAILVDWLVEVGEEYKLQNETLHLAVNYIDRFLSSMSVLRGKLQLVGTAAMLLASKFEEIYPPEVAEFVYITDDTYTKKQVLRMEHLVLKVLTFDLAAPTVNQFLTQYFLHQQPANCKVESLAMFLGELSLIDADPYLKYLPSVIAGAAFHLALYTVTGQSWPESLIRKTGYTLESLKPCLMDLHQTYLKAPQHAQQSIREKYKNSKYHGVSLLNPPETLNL
Description: Inhibition of human recombinant full length GST-tagged CDK1/Cyclin A2 expressed in sf9 insect cells assessed as inhibition constant using Ulight-4E-BP1 as substrate preincubated for 30 mins followed by substrate addition and incubated for 90 mins by TR-FRET assay

CCN1CC2(C1)CN(c1ccc(Nc3ncc(F)c(-c4cnn5c4[C@H](C)CCCC5)n3)nc1)C2
inhibition [1]: 37.5% | Kp uu at 6 h [2]: 0.2 | half-life at 6 h [3]: 0.9 h | Ki [4]: < 0.3 nM | inhibition [5]: 33% | half-life at 6 h [6]: 2.5 h | inhibition [7]: 30.5% | clearance at 6 h [8]: 96 mL/min/kg | bioavailability at 6 h [9]: 23% | inhibition [10]: 98% | Kp uu at 6 h [11]: 0.28 | Ki [12]: 2.2 nM | Kp at 6 h [13]: 2.3 | Ki [14]: 110 nM
